Measured values taken from US6610675B1 (priority 1980, dated 2003).

What was measured:
thymus weight in rats = experiment: Thymus inhibition testing (subcutaneous administration); format: in vivo, rat; details: for Body weight gain / Thymus / Thymus Inhibition: Table VII, three days; for TED50: dose required to achieve 50% inhibition of thymi weight
Description: Several further studies were undertaken to determine the effects of selected compounds of the invention on thymi weights in rats when the drugs were systemically administered. In each of these studies, male Sprague-Dawley rats were used. […] On the fifth day (48 hours following the last treatment), the animals were sacrificed and the thymi weights were recorded. […] It is evident that the higher the inhibition of thymus activity at a given dose, the more toxic the compound is.

[1] = system: granulation tissue formation caused by implantation of cotton pellets; experiment: Granuloma formation test (local cotton pellet granuloma assay); format: in vivo, rat; details: for Body wt. gain / Granulation tissue Dry wt. / Granulation tissue Dry wt. Inhibition / Granulation tissue Wet wt. / Granulation tissue Wet wt. Inhibition / Thymus wt.: Table IV; for Relative potency (ED40) / Relative potency (ED60): chloromethyl 11β-hydroxy-17α-isopropoxycarbonyloxyandrost-4-en-3-one-17β-carboxylate = 1; for ED40: dose causing 40% inhibition of granulation tissue weight; for ED60: dose causing 60% inhibition of granulation tissue weight
Description: The test compound was dissolved in acetone and aliquots of varying concentrations were injected into cotton pellets. The pellets were dried and then one pellet was implanted beneath the skin of each test rat. Six days later, the animals were sacrificed and the granulation tissue (granuloma) which formed in and around the implanted pellet was removed, dried and weighed. In addition, the thymi and adrenals were removed and weighed.

[2] = Table X, betamethasone 17-valerate = 1
[3] = Table X, dose required to achieve 40% inhibition of thymi weight, subcutaneous
[4] = Table XII, hydrocortisone 17-butyrate = 1
[5] = Table XII, thymus inhibition effect, subcutaneously
[6] = Table XII, anti-inflammatory effect in cotton pellet granuloma
[7] = dose causing 50% inhibition of granulation tissue weight

## CC(C)OC(=O)O[C@]1(C(=O)OCCl)CC[C@H]2[C@@H]3CCC4=CC(=O)CC[C@]4(C)[C@H]3[C@@H](O)C[C@@]21C [chloromethyl 11β-hydroxy-17α-isopropoxycarbonyloxyandrost-4-en-3-one-17β-carboxylate]
Thymus weight in rats; 3 mg/kg/day s.c.
  Body weight gain: 14.7 ± 0.6 g
  Thymus: 439 ± 18 mg
  Thymus Inhibition: 6.8%
Thymus weight in rats; 10 mg/kg/day s.c.
  Body weight gain: 10.2 ± 0.7 g
  Thymus: 386 ± 17 mg
  Thymus Inhibition: 18.0%
Thymus weight in rats; 30 mg/kg/day s.c.
  Body weight gain: 6.8 ± 2.1 g
  Thymus: 291 ± 22 mg
  Thymus Inhibition: 38.2%
Thymus weight in rats; 100 mg/kg/day s.c.
  Body weight gain: 2.8 ± 1.8 g
  Thymus: 185 ± 17 mg
  Thymus Inhibition: 60.7%
Thymus weight in rats; [2]
  Relative Potency (TED40): 0.01
  Relative Potency (TED50): 0.01
Thymus weight in rats; [3]
  TED40: 31.0 mg
Thymus weight in rats; Table X, subcutaneous
  TED50: 58.5 mg
Thymus weight in rats; [4]
  Relative Potency (TED40): 1/24
Thymus weight in rats; [5]
  TED40: 31.0 mg/kg
[1]; 100 μg/pellet
  Body wt. gain: 34.9 ± 2.7 g
  Granulation tissue Dry wt.: 70.0 ± 6.0 mg
  Granulation tissue Dry wt. Inhibition: 13.8%
  Granulation tissue Wet wt.: 485 ± 36 mg
  Granulation tissue Wet wt. Inhibition: 14.3%
  Thymus wt.: 452 ± 29 mg
[1]; 300 μg/pellet
  Body wt. gain: 33.9 ± 1.6 g
  Granulation tissue Dry wt.: 50.9 ± 2.8 mg
  Granulation tissue Dry wt. Inhibition: 37.3%
  Granulation tissue Wet wt.: 431 ± 20 mg
  Granulation tissue Wet wt. Inhibition: 23.9%
  Thymus wt.: 469 ± 25 mg
[1]; 1000 μg/pellet
  Body wt. gain: 34.0 ± 2.6 g
  Granulation tissue Dry wt.: 24.1 ± 2.7 mg
  Granulation tissue Dry wt. Inhibition: 70.3%
  Granulation tissue Wet wt.: 305 ± 16 mg
  Granulation tissue Wet wt. Inhibition: 46.1%
  Thymus wt.: 464 ± 30 mg
[1]; 3000 μg/pellet
  Body wt. gain: 32.4 ± 2.3 g
  Granulation tissue Dry wt.: 20.3 ± 1.3 mg
  Granulation tissue Dry wt. Inhibition: 75.0%
  Granulation tissue Wet wt.: 292 ± 7 mg
  Granulation tissue Wet wt. Inhibition: 48.4%
  Thymus wt.: 459 ± 24 mg
[1]; [6]
  ED50: 460 μg/pellet
[1]
  Relative potency (ED40): 1
  Relative potency (ED60): 1
  ED40: 307 μg/pellet
  ED60: 690 μg/pellet
[1]; [7]
  ED50: 460 μg/pellet

## CC(C)OC(=O)O[C@]1(C(=O)OCCl)CC[C@H]2[C@@H]3CCC4=CC(=O)C=C[C@]4(C)[C@H]3[C@@H](O)C[C@@]21C [chloromethyl 11β-hydroxy-17α-isopropoxycarbonyloxy-androsta-1,4-dien-3-one-17β-carboxylate]
Thymus weight in rats; 3 mg/kg/day s.c.
  Body weight gain: 9.0 ± 0.9 g
  Thymus: 377 ± 16 mg
  Thymus Inhibition: 20.0%
Thymus weight in rats; 10 mg/kg/day s.c.
  Body weight gain: 6.2 ± 0.7 g
  Thymus: 312 ± 23 mg
  Thymus Inhibition: 33.8%
Thymus weight in rats; 30 mg/kg/day s.c.
  Body weight gain: 4.8 ± 1.4 g
  Thymus: 257 ± 24 mg
  Thymus Inhibition: 45.4%
Thymus weight in rats; 100 mg/kg/day s.c.
  Body weight gain: 0.3 ± 1.6 g
  Thymus: 161 ± 19 mg
  Thymus Inhibition: 65.8%
Thymus weight in rats; [2]
  Relative Potency (TED40): 0.02
  Relative Potency (TED50): 0.02
Thymus weight in rats; [3]
  TED40: 16.2 mg
Thymus weight in rats; Table X, subcutaneous
  TED50: 35.3 mg
Thymus weight in rats; [4]
  Relative Potency (TED40): 1/12
Thymus weight in rats; [5]
  TED40: 16.2 mg/kg
[1]; 30 μg/pellet
  Body wt. gain: 32.4 ± 1.2 g
  Granulation tissue Dry wt.: 51.0 ± 2.8 mg
  Granulation tissue Dry wt. Inhibition: 37.2%
  Granulation tissue Wet wt.: 432 ± 15 mg
  Granulation tissue Wet wt. Inhibition: 23.7%
  Thymus wt.: 523 ± 26 mg
[1]; 100 μg/pellet
  Body wt. gain: 35.0 ± 1.5 g
  Granulation tissue Dry wt.: 41.1 ± 5.8 mg
  Granulation tissue Dry wt. Inhibition: 49.4%
  Granulation tissue Wet wt.: 417 ± 27 mg
  Granulation tissue Wet wt. Inhibition: 26.3%
  Thymus wt.: 537 ± 31 mg
[1]; 300 μg/pellet
  Body wt. gain: 34.4 ± 1.1 g
  Granulation tissue Dry wt.: 38.1 ± 5.9 mg
  Granulation tissue Dry wt. Inhibition: 53.1%
  Granulation tissue Wet wt.: 369 ± 18 mg
  Granulation tissue Wet wt. Inhibition: 34.8%
  Thymus wt.: 525 ± 28 mg
[1]; 1000 μg/pellet
  Body wt. gain: 29.4 ± 1.5 g
  Granulation tissue Dry wt.: 18.5 ± 2.4 mg
  Granulation tissue Dry wt. Inhibition: 77.2%
  Granulation tissue Wet wt.: 289 ± 12 mg
  Granulation tissue Wet wt. Inhibition: 48.9%
  Thymus wt.: 423 ± 26 mg
[1]; [6]
  ED50: 119 μg/pellet
[1]
  Relative potency (ED40): 6.5
  Relative potency (ED60): 2.3
  ED40: 47 μg/pellet
  ED60: 301 μg/pellet
[1]; [7]
  ED50: 119 μg/pellet
